Laboratory results from patent publication US20190062305A1, “PYRIDYL OR PYRAZINYL COMPOUNDS CARRYING A METHYL-BOUND ALPHA-AMINO ACID AMIDE GROUP” (ABBVIE DEUTSCHLAND GMBH & CO. KG, priority 2015, published 2019).
Where a name gives a salt, the structure may show the parent alone. Read-outs that look alike come from different tables or passages of the source.

Tests used:
5-HT2C receptor = target: T1, 5-HT2C receptor (Homo sapiens, UniProt P28335); assay: Human 5-HT2C functional assay (beta-arrestin2 recruitment, U2OS_HTR2C_β-Arrestin cells); format: cell-based; details: for EC50: beta-arrestin2 recruitment, U2OS_HTR2C_β-Arrestin cells, 1.5 h incubation, read-out: EC50 5-HT2C (potency in functional assay); for Emax: relative efficacy vs response to 10 μM 5-HT or maximal 5-HT effect (100%)
T1 construct: host or cells: U2OS
Method in brief: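 U2OS cells expressing HTR2C with β-galactosidase complementation, switched to 1% serum medium 24 h post-plating, were treated next day with compound for 1.5 h; chemiluminescence read. Response expressed as % of 10 µM 5-HT or maximal 5-HT effect; EC50 from 4-parameter variable-slope fit.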

[1] = Metabolic stability in human liver microsomes, unbound intrinsic clearance (Cl int/fu mic); format: in vitro ADME; details: 0.5 μM compound, NADPH; for CLint scaled at 0.5 μM: pH 7.4, human liver microsomes 0.25 mg/mL, read-out: Cl int, mic unb. (h) [l/h/kg] (unbound intrinsic clearance, human)
Method in brief: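 Compound (0.5 µM) was incubated with human liver microsomes (0.25 mg/mL) in pH 7.4 phosphate buffer at 37 °C with 1.0 mM NADPH, sampling from 0–30 min. Depletion was followed by LC-MS/MS, and CLint was derived from first-order t1/2 per mg protein. Microsomal unbound fraction came from 4 h equilibrium dialysis at 37 °C, giving CLint/fu mic.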

T1 sequence (P28335 33-458): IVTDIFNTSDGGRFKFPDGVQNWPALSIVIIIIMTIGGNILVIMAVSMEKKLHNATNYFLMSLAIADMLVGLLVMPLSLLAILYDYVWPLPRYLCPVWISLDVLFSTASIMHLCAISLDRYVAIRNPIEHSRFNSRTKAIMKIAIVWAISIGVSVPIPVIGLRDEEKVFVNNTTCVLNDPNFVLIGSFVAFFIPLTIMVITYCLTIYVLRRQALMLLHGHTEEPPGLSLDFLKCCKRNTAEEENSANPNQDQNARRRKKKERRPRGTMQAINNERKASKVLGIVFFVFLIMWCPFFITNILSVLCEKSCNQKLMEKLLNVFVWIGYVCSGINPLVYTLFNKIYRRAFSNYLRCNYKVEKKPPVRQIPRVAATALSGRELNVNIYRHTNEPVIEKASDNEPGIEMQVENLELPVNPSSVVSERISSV
T1 sequence (P32121 whole entry partner): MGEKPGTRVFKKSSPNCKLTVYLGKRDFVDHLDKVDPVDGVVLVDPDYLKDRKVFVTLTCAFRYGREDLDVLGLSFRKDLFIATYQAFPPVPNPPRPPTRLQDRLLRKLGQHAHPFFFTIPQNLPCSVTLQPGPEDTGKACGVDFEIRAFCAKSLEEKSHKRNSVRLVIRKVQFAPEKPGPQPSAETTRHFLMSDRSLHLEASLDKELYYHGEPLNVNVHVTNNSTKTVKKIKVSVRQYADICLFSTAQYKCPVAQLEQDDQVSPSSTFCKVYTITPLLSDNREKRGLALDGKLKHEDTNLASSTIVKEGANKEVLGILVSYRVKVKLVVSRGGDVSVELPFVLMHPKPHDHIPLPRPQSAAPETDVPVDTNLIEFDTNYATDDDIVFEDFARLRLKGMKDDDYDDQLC

Structure (SMILES) | EC50 (5-HT2C receptor) [nM] | Emax (5-HT2C receptor) [%] | CLint scaled at 0.5 μM ([1]; human, liver microsomes) [L/h/kg] | CLint scaled at 0.5 μM [1] [L/h/kg] | Cl int, mic unb. (h) [l/h/kg] (unbound intrinsic clearance, human) ([1]; human liver microsomes 0.25 mg/mL)
COc1nc(OCC2CC(F)(F)C2)c(F)cc1CN(C)C(=O)[C@@H]1CCCN1C [Example 106, (2S)—N-[[6-[(3,3-Difluorocyclobutyl)methoxy]-5-fluoro-2-methoxy-3-pyridyl]-methyl]-N,1-dimethyl-pyrrolidine-2-carboxamide Hydrochloride] | 20 to 200 | 30 to 50 | < 5 |  | 
COc1nc(OCC2CC2(F)F)c(F)cc1CN(C)C(=O)[C@@H]1CCCN1 (stereo partly drawn) [Example 77, (2S)—N-[[6-[(2,2-Difluorocyclopropyl)methoxy]-5-fluoro-2-methoxy-3-pyridyl]-methyl]-N-methyl-pyrrolidine-2-carboxamide Hydrochloride] | < 20 | > 70 | < 5 |  | 
COc1nc(N2CC(C)(Oc3ccccc3)C2)c(F)cc1CNC(=O)[C@@H]1CCCN1 [Example 176, (2S)—N-[[5-Fluoro-2-methoxy-6-(3-methyl-3-phenoxy-azetidin-1-yl)-3-pyridyl]methyl]pyrrolidine-2-carboxamide; 2,2,2-trifluoroacetic Acid] | < 20 | > 70 | 5 to 50 |  | 
COc1nc(NC2CCCCC2)c(F)cc1CNC(=O)[C@@H]1CCCN1 [Example 131, (2S)—N-[[6-(Cyclohexylamino)-5-fluoro-2-methoxy-3-pyridyl]methyl]pyrrolidine-2-carboxamide] | < 20 | > 70 | 5 to 50 |  | 
COc1nc(C2CC2)c(F)cc1CNC(=O)[C@@H]1CCCN1 [Example 127, (2S)—N-[(6-Cyclopropyl-5-fluoro-2-methoxy-3-pyridyl)methyl]pyrrolidine-2-carboxamide; 2,2,2-trifluoroacetic Acid] | 200 to 1000 | > 70 | 5 to 50 |  | 
COc1nc(OC2CC(F)(F)C2(F)F)c(F)cc1CNC(=O)[C@@H]1CCCN1 (stereo partly drawn) [Example 112, (2S)—N-[[5-Fluoro-2-methoxy-6-(2,2,3,3-tetrafluorocyclobutoxy)-3-pyridyl]methyl]pyrrolidine-2-carboxamide; 2,2,2-trifluoroacetic Acid] | < 20 | > 70 | < 5 |  | 
COc1nc(OCC(F)(F)F)c(F)cc1CNC(=O)[C@@H]1CCCN1 [Example 87, (2S)—N-[[5-Fluoro-2-methoxy-6-(2,2,2-trifluoroethoxy)-3-pyridyl]methyl]-pyrrolidine-2-carboxamide; 2,2,2-trifluoroacetic Acid] | < 20 | > 70 | < 5 |  | 
COc1nc(OCC(F)(F)F)c(F)cc1CNC(=O)[C@@H]1CCCN1C [Example 100, (2S)—N-[[5-Fluoro-2-methoxy-6-(2,2,2-trifluoroethoxy)-3-pyridyl]methyl]-1-methyl-pyrrolidine-2-carboxamide Hydrochloride] | < 20 | > 70 | < 5 |  | 
COc1nc(N2CCCC3(C2)CC3(F)F)c(F)cc1CNC(=O)[C@@H]1CCCN1 (stereo partly drawn) [Example 188, (2S)—N-[[6-(2,2-Difluoro-7-azaspiro[2.5]octan-7-yl)-5-fluoro-2-methoxy-3-pyridyl]methyl]pyrrolidine-2-carboxamide; 2,2,2-trifluoroacetic Acid] | 20 to 200 | > 70 |  | 5 to 50 | 
COc1nc(OCC2(C(F)(F)F)CC2)c(F)cc1CN(C)C(=O)[C@@H]1CCCN1 [Example 76, (2S)—N-[[5-Fluoro-2-methoxy-6-[[1-(trifluoromethyl)cyclopropyl]methoxy]-3-pyridyl]methyl]-N-methyl-pyrrolidine-2-carboxamide Hydrochloride] | < 20 | > 70 | < 5 |  | 
COc1nc(OC2CCC(F)(F)C2)c(F)cc1CNC(=O)[C@@H]1CCCN1C (stereo partly drawn) [Example 23, (2S)—N-[[6-(3,3-Difluorocyclopentoxy)-5-fluoro-2-methoxy-3-pyridyl]methyl]-1-methyl-pyrrolidine-2-carboxamide; Fumaric Acid] | < 20 | > 70 | < 5 |  | 
COc1nc(C2=CCC(C(F)(F)F)CC2)c(F)cc1CNC(=O)[C@@H]1CCCN1 (stereo partly drawn) [Example 140, (2S)—N-[[5-Fluoro-2-methoxy-6-[4-(trifluoromethyl)cyclohexen-1-yl]-3-pyridyl]methyl]pyrrolidine-2-carboxamide] | < 20 | > 70 | 5 to 50 |  | 
COc1nc(NC2CCC(F)(F)CC2)c(F)cc1CN(C)C(=O)[C@@H]1CCCN1 [Example 166, (2S)—N-[[6-[(4,4-Difluorocyclohexyl)amino]-5-fluoro-2-methoxy-3-pyridyl]methyl]-N-methyl-pyrrolidine-2-carboxamide; 2,2,2-trifluoroacetic Acid] | 20 to 200 | 50 to 70 | < 5 |  | 
COc1nc(OC2CCC(F)(F)C2)c(F)cc1CNC(=O)[C@@H]1CCCN1 (stereo partly drawn) [Example 24, (2S)—N-[[6-(3,3-Difluorocyclopentoxy)-5-fluoro-2-methoxy-3-pyridyl]methyl]-pyrrolidine-2-carboxamide; Fumaric Acid] | < 20 | > 70 | < 5 |  | 
COc1nc(OC2CCC(CF)CC2)c(F)cc1CNC(=O)[C@@H]1CCCN1 (stereo partly drawn) [Example 75, (2S)—N-[[5-fluoro-6-[4-(fluoromethyl)cyclohexoxy]-2-methoxy-3-pyridyl]methyl]-pyrrolidine-2-carboxamide; 2,2,2-trifluoroacetic Acid] | < 20 | > 70 | 5 to 50 |  | 
COc1nc(N2CCC(C3CCC(C(F)(F)F)CC3)CC2)c(F)cc1CNC(=O)[C@@H]1CCCN1 (stereo partly drawn) [Example 180, (2S)—N-[[5-Fluoro-2-methoxy-6-[4-[4-(trifluoromethyl)cyclohexyl]-1-piperidyl]-3-pyridyl]methyl]pyrrolidine-2-carboxamide; 2,2,2-trifluoroacetic Acid] | 200 to 1000 | > 70 | 50 to 500 |  | 
COc1nc(O[C@H]2CC[C@@H](C(F)(F)F)CC2)c(F)cc1CNC(=O)[C@@H]1CCCN1C [Example 19, (2S)—N-[[5-Fluoro-2-methoxy-6-[cis-4-(trifluoromethyl)cyclohexoxy]-3-pyridyl]methyl]-1-methyl-pyrrolidine-2-carboxamide; Fumaric Acid] | < 20 | > 70 | 5 to 50 |  | 
COc1nc(OC2CCC(C(F)(F)F)CC2)c(F)cc1CNC(=O)[C@H]1NC[C@H]1C (stereo partly drawn) [Example 79, (2S,3R)—N-[[5-Fluoro-2-methoxy-6-[4-(trifluoromethyl)cyclohexoxy]-3-pyridyl]-methyl]-3-methyl-azetidine-2-carboxamide; Fumaric Acid] | 20 to 200 | 30 to 50 | 50 to 500 |  | 
COc1nc(OC2CCC(F)(F)CC2)c(F)cc1CNC(=O)[C@@H]1CCN1 [Example 37, (2S)—N-[[6-(4,4-Difluorocyclohexoxy)-5-fluoro-2-methoxy-3-pyridyl]methyl]-azetidine-2-carboxamide; Succinic Acid] | < 20 | 50 to 70 | < 5 |  | 
COc1nc(N[C@H]2CC[C@@H](C(F)(F)F)CC2)c(F)cc1CNC(=O)[C@@H]1CCCN1 [Example 141, (2S)—N-[[5-Fluoro-2-methoxy-6-[[cis-4-(trifluoromethyl)cyclohexyl]amino]-3-pyridyl]methyl]pyrrolidine-2-carboxamide] | < 20 | > 70 |  |  | + (from 50 to 500 l/h/kg)
COc1nc(OCC(F)(F)F)c(F)cc1CN(C)C(=O)[C@@H]1CCCN1C [Example 113, (2S)—N-[[5-Fluoro-2-methoxy-6-(2,2,2-trifluoroethoxy)-3-pyridyl]methyl]-N,1-dimethyl-pyrrolidine-2-carboxamide Hydrochloride] | 200 to 1000 | 30 to 50 | < 5 |  | 
COc1nc(OC(C(F)(F)F)C(F)(F)F)c(F)cc1CNC(=O)[C@@H]1CCCN1 [Example 111, (2S)—N-[[5-Fluoro-2-methoxy-6-[2,2,2-trifluoro-1-(trifluoromethyl)ethoxy]-3-pyridyl]methyl]pyrrolidine-2-carboxamide Hydrochloride] | < 20 | > 70 | 5 to 50 |  | 
Cc1nc(OC2CCC(C(F)(F)F)CC2)ccc1CNC(=O)C1CCCN1 [Example 65, (S)—N-((2-Methyl-6-(((1R,4S)-4-(trifluoromethyl)cyclohexyl)oxy)pyridin-3-yl)methyl)pyrrolidine-2-carboxamide] | 20 to 200 | 50 to 70 | < 5 |  | 
COc1nc(O[C@H]2CC[C@@H](C(F)(F)F)CC2)c(F)cc1CNC(=O)[C@@H]1CCCN1 [Example 20, (2S)—N-[[5-Fluoro-2-methoxy-6-[cis-4-(trifluoromethyl)cyclohexoxy]-3-pyridyl]methyl]pyrrolidine-2-carboxamide; Fumaric Acid] | < 20 | > 70 | 5 to 50 |  | 
COc1nc(OCc2ccccc2)c(F)cc1CNC(=O)[C@@H]1CCCN1 [Example 2, (2S)—N-[(6-Benzyloxy-5-fluoro-2-methoxy-3-pyridyl)methyl]pyrrolidine-2-carboxamide; 2,2,2-trifluoroacetic Acid] | < 20 | > 70 | < 5 |  | 
